Laboratory results published in US20190225650A1, “PEPTIDOMIMETIC MACROCYCLES AND USE THEREOF IN REGULATING HIF1ALPHA” (AILERON THERAPEUTICS, INC., priority 2013, published 2019).
Bridge positions count the residues as written; N and C are the ends. Square brackets hold non-standard residues; d marks the D form. Peptide text beside a SMILES is read from it. R8 = C=CCCCCCC[C@@](C)(N)C(=O)O; S5 = C=CCCC[C@](C)(N)C(=O)O; Nle = CCCC[C@H](N)C(=O)O

Experiments:
[1] = target: T1, flag-tagged HIF1α (AA 786-826) / His6-tagged p300 (AA 323-423) complex (Homo sapiens, UniProt Q09472); assay: HIF1α p300 displacement assay (TR FRET, +CHAPS); assay type: binding; details: read-out: IC50 (nM) (HIF1α_p300 Displacement + CHAPS)
T1 construct: His6-tagged p300 (AA 323-423); made in house; host or cells: E. coli (pETDuet vector)
In short: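 The co-expressed flag-HIF1α (786-826)/His6-p300 (323-423) complex, purified from E. coli with 0.1 mM ZnSO4, was used at 300 nM final with competitor peptides for 1 h at room temperature. Buffer was 150 mM NaCl, 20 mM HEPES pH 7.4, 7.5 mM CHAPS and 1 mM DTT. Anti-Flag-K (0.5 μM) and anti-His-D2 (4 nM) were then added for 2 h, and IC50s were fitted from the TR-FRET ratio.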

HRE-bla ME-180 cells [2] = assay: Reporter gene assay (HRE-bla ME-180 HIF reporter, GeneBLAzer); assay type: cell-based, human; details: for EC50: 24 hour normoxia
In short: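 A FRET β-lactamase readout of HIF transcription was used. After compound treatment in 0.3% DMSO/media under normoxic conditions, 20 μl of 6× LiveBLAzer-FRET B/G (CCF4-AM) substrate was added. Plates sat 3 hr at room temperature in the dark and were read at 409 Ex/460Em and 409Ex/530Em on a Synergy 2. Inhibition was compared against DMSO vehicle controls, with chetomin as positive control.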

HRE-bla ME-180 cells [3] = assay: Cell proliferation assay (viability, MTT, 1% FBS); assay type: cell-based, human
In short: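 ME-180 cells (2×10^4/well) in Opti-MEM with 1% FBS were pretreated 16 h under normoxia (21% O2), vehicle 0.5% DMSO final. Incubation then continued under normoxia or hypoxia (1% O2); viable cells quantified by MTT-type CellTiter 96 assay.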

CCCC[C@H](NC(=O)[C@@]1(C)CCCC=CCCCC2(CCCC=CCCC[C@](C)(NC(=O)[C@H](CCC(=O)O)NC(=O)[C@H](CC(=O)O)NC(=O)[C@@H](NC(=O)[C@H](Cc3ccccc3)NC(C)=O)[C@@H](C)CC)C(=O)N[C@@H](C(C)C)C(=O)N[C@@H](CC(C)C)C(=O)N[C@@H](CCC(=O)O)C(=O)N2)C(=O)N[C@@H](CC(C)C)C(=O)N[C@@H](C(C)C)C(=O)N[C@@H]([C@@H](C)CC)C(=O)N1)C(=O)N[C@@H](C)C(=O)N[C@@H](CC(C)C)C(N)=O (some centres unmarked) [SP-205]
IC50 [1]: 200 to 400 nM | 18 h Avg % max inhibition at top conc (HIF Rptr-24 hrs normoxia) (μM) (HRE-bla ME-180 cells [2]): + (<10: +) | EC50 (HRE-bla ME-180 cells [2]): > 30 µM | Viability 1% FBS AVG (MTT V3-24 hr Normoxia) (μM) (HRE-bla ME-180 cells [3]): ++++ (≥30: ++++)

CC[C@H](C)[C@H](NC(=O)[C@H](CCCNC(=N)N)NC(=O)[C@H](CC(=O)O)NC(=O)[C@H](CC(C)C)NC(=O)[C@H](C)NC(=O)[C@H](CCSC)NC(=O)[C@H](CCC(=O)O)NC(=O)[C@@H](NC(=O)[C@@H](NC(=O)[C@H](CC(C)C)NC(=O)[C@]1(C)CCCC=CCCC[C@](C)(NC(=O)[C@H](CCC(=O)O)NC(=O)[C@H](CC(=O)O)NC(=O)[C@@H](NC(=O)[C@H](Cc2ccccc2)NC(C)=O)[C@@H](C)CC)C(=O)N[C@@H](C(C)C)C(=O)N[C@@H](CC(C)C)C(=O)N[C@@H](CCSC)C(=O)N1)C(C)C)[C@@H](C)CC)C(=O)N[C@@H](CCCCN)C(=O)N[C@@H](CCC(=O)O)C(N)=O [SP-113] (Ac-FIDE[S5]VLM[S5]LVIEMALDRIKE-NH2; staple 5-9)
IC50 [1]: 400 to 700 nM | 18 h Avg % max inhibition at top conc (HIF Rptr-24 hrs normoxia) (μM) (HRE-bla ME-180 cells [2]): ++++ (≥50: ++++) | EC50 (HRE-bla ME-180 cells [2]): 5 to 15 µM | Viability 1% FBS AVG (MTT V3-24 hr Normoxia) (μM) (HRE-bla ME-180 cells [3]): ++++ (≥30: ++++)

CCCC[C@H](NC(=O)[C@H](CCC(=O)O)NC(=O)[C@]1(C)CCCC=CCCCCCC[C@@](C)(NC(=O)[C@H](CCC(=O)O)NC(=O)[C@H](CC(=O)O)NC(=O)[C@@H](NC(=O)[C@H](CC(N)=O)NC(=O)[C@@H](NC(=O)[C@H](CCC(N)=O)NC(=O)[C@H](CC(=O)O)NC(=O)[C@H](CC(C)C)NC(=O)[C@H](C)NC(=O)[C@]2(C)CCCC=CCCC[C@](C)(NC(=O)CNC(=O)[C@H](CCC(N)=O)NC(=O)[C@H](CC(C)C)NC(=O)[C@H](CC(C)C)NC(C)=O)C(=O)N[C@@H](CCC(=O)O)C(=O)N[C@@H](CC(C)C)C(=O)N[C@@H](CC(C)C)C(=O)N2)C(C)C)[C@@H](C)CC)C(=O)N[C@@H](C(C)C)C(=O)N[C@@H](CC(C)C)C(=O)N[C@@H](CCCC)C(=O)N[C@@H](CO)C(=O)N[C@@H](CC(C)C)C(=O)N[C@@H](C(C)C)C(=O)N1)C(=O)NCC(N)=O [SP-343] (Ac-LLQG[S5]ELL[S5]ALDQVNIDE[R8]VL[Nle]SLV[S5]E[Nle]G-NH2; staple 5-9, 19-26)
IC50 [1]: 200 to 400 nM | 18 h Avg % max inhibition at top conc (HIF Rptr-24 hrs normoxia) (μM) (HRE-bla ME-180 cells [2]): + (<10: +) | EC50 (HRE-bla ME-180 cells [2]): > 30 µM | Viability 1% FBS AVG (MTT V3-24 hr Normoxia) (μM) (HRE-bla ME-180 cells [3]): ++++ (≥30: ++++)

CCCC[C@H](NC(=O)[C@H](CCC(=O)O)NC(=O)[C@@H](NC(=O)[C@@H](NC(=O)[C@H](CO)NC(=O)[C@]1(C)CCCC=CCCC[C@](C)(NC(=O)[C@H](CCC(=O)O)NC(=O)[C@H](CC(=O)O)NC(=O)[C@@H](NC(=O)[C@H](Cc2ccccc2)NC(C)=O)[C@@H](C)CC)C(=O)N[C@@H](C(C)C)C(=O)N[C@@H](CC(C)C)C(=O)N[C@@H](CCCC)C(=O)N1)C(C)C)[C@@H](C)CC)C(=O)N[C@@H](C)C(=O)N[C@@H](CC(C)C)C(N)=O [SP-144] (Ac-FIDE[S5]VL[Nle][S5]SVIE[Nle]AL-NH2; staple 5-9)
IC50 [1]: 400 to 700 nM | 18 h Avg % max inhibition at top conc (HIF Rptr-24 hrs normoxia) (μM) (HRE-bla ME-180 cells [2]): ++++ (≥50: ++++) | EC50 (HRE-bla ME-180 cells [2]): > 30 µM | Viability 1% FBS AVG (MTT V3-24 hr Normoxia) (μM) (HRE-bla ME-180 cells [3]): +++ (≤15 but <30: +++)

CCCC[C@H](NC(=O)[C@H](Cc1ccccc1)NC(=O)[C@@H](NC(=O)[C@H](C)NC(=O)[C@H](CCC(=O)O)NC(=O)[C@H](CC(=O)O)NC(=O)[C@@H](NC(=O)[C@H](Cc1ccccc1)NC(C)=O)[C@@H](C)CC)C(C)C)C(=O)N[C@@]1(C)CCCC=CCCC[C@@](C)(C(=O)N[C@@H](CCCC)C(=O)N[C@@H](C)C(=O)N[C@@H](CC(C)C)C(=O)N[C@@H](CC(C)C)C(N)=O)NC(=O)[C@H]([C@@H](C)CC)NC(=O)[C@H](C(C)C)NC(=O)[C@H](CC(C)C)NC1=O [SP-249] (Ac-FIDEAVF[Nle][S5]LVI[S5][Nle]ALL-NH2; staple 9-13)
IC50 [1]: > 700 nM | 18 h Avg % max inhibition at top conc (HIF Rptr-24 hrs normoxia) (μM) (HRE-bla ME-180 cells [2]): + (<10: +) | EC50 (HRE-bla ME-180 cells [2]): > 30 µM | Viability 1% FBS AVG (MTT V3-24 hr Normoxia) (μM) (HRE-bla ME-180 cells [3]): ++++ (≥30: ++++)
